Laboratory results from patent US11198713B2, “Agents modulating beta-catenin functions and methods thereof” (FOG PHARMACEUTICALS, INC., priority 2017, dated 2021).

Target: T1, full-length beta-catenin (Axin site) (Homo sapiens, UniProt P35222)
T1 construct: 15 nM full-length beta-catenin, 20 nM FITC labeled peptide in buffer
T1 sequence (P35222 1-781): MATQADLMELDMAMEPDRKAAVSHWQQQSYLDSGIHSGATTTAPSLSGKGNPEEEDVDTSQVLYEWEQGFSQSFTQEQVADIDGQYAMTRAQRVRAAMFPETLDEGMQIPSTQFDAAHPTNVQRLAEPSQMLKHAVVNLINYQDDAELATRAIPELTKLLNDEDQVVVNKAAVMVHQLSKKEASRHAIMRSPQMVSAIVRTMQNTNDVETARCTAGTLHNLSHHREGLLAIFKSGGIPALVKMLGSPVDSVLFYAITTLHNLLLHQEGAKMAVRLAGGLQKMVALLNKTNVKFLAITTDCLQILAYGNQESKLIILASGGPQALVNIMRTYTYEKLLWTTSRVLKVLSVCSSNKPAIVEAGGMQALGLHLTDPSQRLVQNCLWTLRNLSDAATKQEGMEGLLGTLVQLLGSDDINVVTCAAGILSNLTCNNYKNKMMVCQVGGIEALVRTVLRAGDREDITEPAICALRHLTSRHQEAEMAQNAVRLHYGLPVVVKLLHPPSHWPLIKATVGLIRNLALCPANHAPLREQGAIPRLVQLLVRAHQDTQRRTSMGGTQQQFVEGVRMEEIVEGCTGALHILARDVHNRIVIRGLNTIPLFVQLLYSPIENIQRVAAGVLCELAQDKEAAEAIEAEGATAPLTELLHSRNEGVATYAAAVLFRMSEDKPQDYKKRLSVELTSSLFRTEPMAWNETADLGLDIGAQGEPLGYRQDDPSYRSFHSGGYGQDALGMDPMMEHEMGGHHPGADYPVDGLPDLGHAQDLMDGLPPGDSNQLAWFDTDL
Experiment: Competition fluorescence polarization assay (Axin site probe)
Type: binding
Conditions: competition fluorescence polarization, Table 2; read-out: in vitro FP EC50
Description: FIG. 1. […] Peptide solutions were prepared in buffer (50 mM Tris pH 8.0, 250 mM NaCl, 2% glycerol, 0.5 mM EDTA, 0.02% w/v sodium azide) using a 3-fold serial dilution from 5 μM. Probe solution (15 nM full-length 13-Catenin, 20 nM FITC labeled peptide (FITC-PEG1-PQ-S5-ILD-S5-HVRRVWR (SEQ ID NO: 1) (hydrocarbon staple formed by two S5 via olefin metathesis)) in buffer) was prepared and incubated for 5 minutes, then 40 μL per well plated in a black polystyrene 384-well plate (Corning). Equal volume of the titrated peptide was added to the plate and incubated protected from light for 15 minutes prior to read. Reads were performed on a Spectramax M5 (Molecular Devices) in duplicate.
FIG. 7. […] BCL9 Competition FP assay: Peptide solutions were prepared in buffer (50 mM Tris pH 8.0, 250 mM NaCl, 2% glycerol, 0.5 mM EDTA, 0.02% w/v sodium azide) using a 3-fold serial dilution from 10 μM. Probe solution (250 nM full-length beta-catenin, 20 nM 5FAM labeled peptide in buffer) was prepared and 40 μL per well plated in a black polystyrene 384-well plate (Corning). Equal volume of the titrated peptide was added to the plate and incubated protected from light for 15 minutes prior to read. Reads were performed on a Spectramax M5 (Molecular Devices) in duplicate. Probe: Ac-[…]nLeu-Leu-2NapA-bala-bala-Lys5FAM-NH2 (SEQ ID NO: 2) (from Biochemistry, 2009, 48 (40), pp 9534-9541). Axin Competition FP assay: Peptide solutions were prepared in buffer (50 mM Tris pH 8.0, 250 mM NaCl, 2% glycerol, 0.5 mM EDTA, 0.02% w/v sodium azide) using a 3-fold serial dilution from 5 μM. Probe solution (15 nM full-length beta-catenin, 20 nM FITC labeled peptide in buffer) was prepared and incubated for 5 minutes, then 40 μL per well plated in a black polystyrene 384-well plate (Corning). Equal volume of the titrated peptide was added to the plate and incubated protected from light for 15 minutes prior to read. Reads were performed on a Spectramax M5 (Molecular Devices) in duplicate. Probe: FITC-StAx-33 from Grossmann et al. PNAS 109 17942-17947.

Row | SMILES | EC50
1 | CC[C@H](C)[C@@H]1NC(=O)[C@H](Cc2c[nH]cn2)NC(=O)[C@H](C)NC(=O)[C@H](CC(=O)O)NC(=O)[C@H](CC(C)C)NC(=O)[C@H]([C@@H](C)CC)NC(=O)[C@](C)(NC(=O)[C@H](C)NC(C)=O)CCCCCC=CCN2CC(C(=O)N[C@@H](CCCNC(=N)N)C(=O)N[C@H](C(=O)N[C@@H](Cc3c[nH]c4ccccc34)C(N)=O)C(C)C)(C2)NC1=O (single isomer, unassigned) [FP0516a Isomer 1, Ac-A-R7-I-L-D-A-H-I-MA-R-V-W-NH2] | 0.1 to 0.5 µM
2 | CC[C@H](C)[C@@H]1NC(=O)[C@H](Cc2c[nH]cn2)NC(=O)[C@H](C)NC(=O)[C@H](CC(=O)O)NC(=O)[C@H](CC(C)C)NC(=O)[C@H]([C@@H](C)CC)NC(=O)[C@](C)(NC(=O)[C@H](C)NC(C)=O)CCCCCC=CCN2CC(C(=O)N[C@@H](CCCNC(=N)N)C(=O)N[C@H](C(=O)N[C@@H](Cc3c[nH]c4ccccc34)C(N)=O)C(C)C)(C2)NC1=O (single isomer, unassigned) [FP0516a Isomer 2, Ac-A-R7-I-L-D-A-H-I-MA-R-V-W-NH2] | 0.5 to 5 µM
3 | CC[C@H](C)[C@@H]1NC(=O)[C@H](Cc2ccccn2)NC(=O)[C@H](C)NC(=O)[C@H](CC(=O)O)NC(=O)[C@H](CC(C)C)NC(=O)[C@H]([C@@H](C)CC)NC(=O)[C@](C)(NC(=O)[C@H](C)NC(C)=O)CCCCCCC=CCOC(=O)N2CC[C@@](C(=O)N[C@@H](C)C(=O)N[C@H](C(=O)N[C@@H](Cc3c[nH]c4ccccc34)C(N)=O)C(C)C)(C2)NC1=O (single isomer, unassigned) [FP0554c Isomer 1, Ac-A-R8-I-L-D-A-2pyr-I-MB-A-V-W-NH2] | > 5 µM
4 | CC[C@H](C)[C@@H]1NC(=O)[C@H](Cc2ccccn2)NC(=O)[C@H](C)NC(=O)[C@H](CC(=O)O)NC(=O)[C@H](CC(C)C)NC(=O)[C@H]([C@@H](C)CC)NC(=O)[C@](C)(NC(=O)[C@H](C)NC(C)=O)CCCCCCC=CCOC(=O)N2CC[C@@](C(=O)N[C@@H](C)C(=O)N[C@H](C(=O)N[C@@H](Cc3c[nH]c4ccccc34)C(N)=O)C(C)C)(C2)NC1=O (single isomer, unassigned) [FP0554c Isomer 2, Ac-A-R8-I-L-D-A-2pyr-I-MB-A-V-W-NH2] | > 5 µM
5 | CC[C@H](C)[C@@H]1NC(=O)[C@H](Cc2ccccn2)NC(=O)[C@H](C)NC(=O)[C@H](CC(=O)O)NC(=O)[C@H](CC(C)C)NC(=O)[C@H]([C@@H](C)CC)NC(=O)[C@](C)(NC(=O)[C@H](C)NC(C)=O)CCCCCCC=CCOC(=O)N2CC[C@@](C(=O)N[C@@H](Cc3ccccc3)C(=O)N[C@H](C(=O)N[C@@H](Cc3c[nH]c4ccccc34)C(N)=O)C(C)C)(C2)NC1=O (single isomer, unassigned) [FP0555c Isomer 1, Ac-A-R8-I-L-D-A-2pyr-I-MB-F-V-W-NH2] | > 5 µM
6 | CC[C@H](C)[C@@H]1NC(=O)[C@H](Cc2ccccn2)NC(=O)[C@H](C)NC(=O)[C@H](CC(=O)O)NC(=O)[C@H](CC(C)C)NC(=O)[C@H]([C@@H](C)CC)NC(=O)[C@](C)(NC(=O)[C@H](C)NC(C)=O)CCCCCCC=CCOC(=O)N2CC[C@@](C(=O)N[C@@H](Cc3ccccc3)C(=O)N[C@H](C(=O)N[C@@H](Cc3c[nH]c4ccccc34)C(N)=O)C(C)C)(C2)NC1=O (single isomer, unassigned) [FP0555c Isomer 2, Ac-A-R8-I-L-D-A-2pyr-I-MB-F-V-W-NH2] | > 5 µM

The next lines start with the values.

Row | EC50 | SMILES
7 | > 5 µM | CC[C@H](C)[C@@H]1NC(=O)[C@H](Cc2ccccn2)NC(=O)[C@H](C)NC(=O)[C@H](CC(=O)O)NC(=O)[C@H](CC(C)C)NC(=O)[C@H]([C@@H](C)CC)NC(=O)[C@](C)(NC(=O)[C@H](C)NC(C)=O)CCCCCCC=CCOC(=O)N2CC[C@@](C(=O)N[C@H](C(=O)N[C@H](C(=O)N[C@@H](Cc3c[nH]c4ccccc34)C(N)=O)C(C)C)[C@@H](C)CC)(C2)NC1=O (single isomer, unassigned) [FP0556c Isomer 1, Ac-A-R8-I-L-D-A-2pyr-I-MB-I-V-W-NH2]
8 | > 5 µM | CC[C@H](C)[C@@H]1NC(=O)[C@H](Cc2ccccn2)NC(=O)[C@H](C)NC(=O)[C@H](CC(=O)O)NC(=O)[C@H](CC(C)C)NC(=O)[C@H]([C@@H](C)CC)NC(=O)[C@](C)(NC(=O)[C@H](C)NC(C)=O)CCCCCCC=CCOC(=O)N2CC[C@@](C(=O)N[C@H](C(=O)N[C@H](C(=O)N[C@@H](Cc3c[nH]c4ccccc34)C(N)=O)C(C)C)[C@@H](C)CC)(C2)NC1=O (single isomer, unassigned) [FP0556c Isomer 2, Ac-A-R8-I-L-D-A-2pyr-I-MB-I-V-W-NH2]
9 | > 5 µM | CC[C@H](C)[C@@H]1NC(=O)[C@H](Cc2ccccn2)NC(=O)[C@H](C)NC(=O)[C@H](CC(=O)O)NC(=O)[C@H](CC(C)C)NC(=O)[C@H]([C@@H](C)CC)NC(=O)[C@](C)(NC(=O)[C@H](C)NC(C)=O)CCCCCCC=CCOC(=O)N2CC[C@@](C(=O)N[C@@H](CC(C)C)C(=O)N[C@H](C(=O)N[C@@H](Cc3c[nH]c4ccccc34)C(N)=O)C(C)C)(C2)NC1=O (single isomer, unassigned) [FP0557c Isomer 1, Ac-A-R8-I-L-D-A-2pyr-I-MB-L-V-W-NH2]
10 | > 5 µM | CC[C@H](C)[C@@H]1NC(=O)[C@H](Cc2ccccn2)NC(=O)[C@H](C)NC(=O)[C@H](CC(=O)O)NC(=O)[C@H](CC(C)C)NC(=O)[C@H]([C@@H](C)CC)NC(=O)[C@](C)(NC(=O)[C@H](C)NC(C)=O)CCCCCCC=CCOC(=O)N2CC[C@@](C(=O)N[C@@H](CC(C)C)C(=O)N[C@H](C(=O)N[C@@H](Cc3c[nH]c4ccccc34)C(N)=O)C(C)C)(C2)NC1=O (single isomer, unassigned) [FP0557c Isomer 2, Ac-A-R8-I-L-D-A-2pyr-I-MB-L-V-W-NH2]
11 | > 5 µM | CC[C@H](C)[C@@H]1NC(=O)[C@H](Cc2ccccn2)NC(=O)[C@H](C)NC(=O)[C@H](CC(=O)O)NC(=O)[C@H](CC(C)C)NC(=O)[C@H]([C@@H](C)CC)NC(=O)[C@](C)(NC(=O)[C@H](C)NC(C)=O)CCCCCCC=CCOC(=O)N2CC[C@@](C(=O)N[C@@H](CC(N)=O)C(=O)N[C@H](C(=O)N[C@@H](Cc3c[nH]c4ccccc34)C(N)=O)C(C)C)(C2)NC1=O (single isomer, unassigned) [FP0558c Isomer 1, Ac-A-R8-I-L-D-A-2pyr-I-MB-N-V-W-NH2]
12 | > 5 µM | CC[C@H](C)[C@@H]1NC(=O)[C@H](Cc2ccccn2)NC(=O)[C@H](C)NC(=O)[C@H](CC(=O)O)NC(=O)[C@H](CC(C)C)NC(=O)[C@H]([C@@H](C)CC)NC(=O)[C@](C)(NC(=O)[C@H](C)NC(C)=O)CCCCCCC=CCOC(=O)N2CC[C@@](C(=O)N[C@@H](CC(N)=O)C(=O)N[C@H](C(=O)N[C@@H](Cc3c[nH]c4ccccc34)C(N)=O)C(C)C)(C2)NC1=O (single isomer, unassigned) [FP0558c Isomer 2, Ac-A-R8-I-L-D-A-2pyr-I-MB-N-V-W-NH2]
13 | > 5 µM | CC[C@H](C)[C@@H]1NC(=O)[C@H](Cc2ccccn2)NC(=O)[C@H](C)NC(=O)[C@H](CC(=O)O)NC(=O)[C@H](CC(C)C)NC(=O)[C@H]([C@@H](C)CC)NC(=O)[C@](C)(NC(=O)[C@H](C)NC(C)=O)CCCCCCC=CCOC(=O)N2CC[C@@](C(=O)N[C@@H](CCC(N)=O)C(=O)N[C@H](C(=O)N[C@@H](Cc3c[nH]c4ccccc34)C(N)=O)C(C)C)(C2)NC1=O (single isomer, unassigned) [FP0559c Isomer 1, Ac-A-R8-I-L-D-A-2pyr-I-MB-Q-V-W-NH2]
